Assay results reported in patent EP0565377B1, “Therapeutic agents for use in the treatment of Parkinson's Disease” (Kyowa Hakko Kogyo Co., Ltd., priority 1992, dated 1993).

What was measured:
dd-strain male mice = assay: Acute toxicity test (minimum lethal dose, oral); format: in vivo; settings: oral administration, mortality seven days after administration, three mice per group
Method: Test compounds were orally administered to groups of dd-strain male mice weighing 20±1 g, each group consisting of three mice. Seven days after the administration, minimum lethal dose (MLD) of each compound was determined by observing the mortality.

[1] = tested on: Haloperidol-Induced Catalepsy; assay: Effect on haloperidol-induced catalepsy; format: in vivo, male ddY mice; settings: Table 4-1, test compound 10 mg/kg orally; for inhibition in vivo at 10 mg/kg: Mus musculus, po, 1 h, rate of decrease in total score based on control group, read-out: Remission Rate (%); for Number of the Animals Showing Remission: of 5 mice, catalepsy score not more than 4 points; for Total Score: total catalepsy score of 5 mice (25 points at the full), 0.3% CMC control 25
Method: The experiment was performed by using several groups of 5-weeks-old male ddY mice (weighing 22 to 24 g, Japan SLC), each group consisting of 5 mice. Haloperidol (Janssen Pharmaceutica) suspended in 0.3% CMC was intraperitoneally administered to each mouse at a dose of 1.0 mg/kg. Test compounds were suspended in 0.3% CMC or in injectable distilled water (Otsuka Pharmaceutical Co., Ltd.) containing Tween 80. L-DOPA (Kyowa Hakko Kogyo Co., Ltd.) and benserazide hydrochloride (Kyowa Hakko Kogyo Co., Ltd.) were suspended in 0.3% CMC. One hour after the haloperidol administration, the test compound suspensions and the control suspension [0.3% CMC or injectable distilled water (Otsuka Pharmaceutical Co., Ltd.) containing Tween 80] containing no test compound were orally administered to separate groups of the mice (0.1 ml per 10 g of body weight). One hour after the administration of the test compound, the forelimbs of each mouse and subsequently the hindlimbs of the same mouse were placed on a 4.5 cm-high, 1.0 cm-wide bar and catalepsy was estimated. All of the test compounds were orally administered at a dose of 10 mg/kg, and L-DOPA (100 mg/kg) and benserazide (25 mg/kg) were intraperitoneally administered together as a control experiment. The catalepsy score and the standard of judgment are shown below.
The effect of the compounds was evaluated by the total of the catalepsy scores of five mice in each group (25 points at the full). The groups wherein the total score was not more than 20 points were estimated to be effective. The number of the animals showing remission against catalepsy is the number of the mice for which the catalepsy score was not more than 4 points.

[2] = tested on: Parkinson's Disease Model in Mouse; assay: Effect on locomotor activity of Parkinson's disease model in mouse (MPTP-treated mice, Automex-II horizontal activity); format: in vivo, male C57BL/6 mice
Method: 1-Methyl-4-phenyl-1,2,3,6-tetrahydropyridine (MPTP) causes symptoms of Parkinson's disease in humans [Science, 219, 979 (1983)]. It is reported that an experimental Parkinson's disease model was obtained by administering MPTP to mice [Science, 224, 1451 (1984)]. If a compound is effective on the experimental Parkinson's disease model in mouse, the compound can be expected to have a therapeutic effect on Parkinson's disease.
The experiment was performed by using several groups of 7-weeks-old male C57BL/6 mice (weighing 20 to 21 g, Japan SLC), each group consisting of 8 mice. MPTP (Aldrich Chemical Co., Inc.) dissolved in a physiological saline solution (Otsuka Pharmaceutical Co., Ltd.) was intraperitoneally administered to each mouse once a day for five consecutive days at a dose of 30 mg/kg. A test compound was suspended in injectable distilled water (Otsuka Phamaceutical Co., Ltd.) containing Tween 80 [polyoxyethylene (20) sorbitan monooleate]. L-DOPA (Kyowa Hakko Kogyo Co., Ltd.) was suspended in 0.3% CMC (sodium carboxylmethylcellulose). Thirty minutes after the final MPTP administration, the test compound suspensions and the control suspension [injectable distilled water (Otsuka Pharmaceutical Co., Ltd.) containing Tween 80] containing no test compound were orally administered to separate groups of the mice (0.1 ml per 10 g of body weight). The amount of active movements (horizontal activity) of each mouse was measured by using Automex-II (Columbus Instruments International Corp.) for the period of 30 minutes starting 30 minutes after the administration of the test compound. The effect of the compounds was evaluated by comparing the average counts of the active movements of the test compound-administered groups with those of the control groups. A significant difference test was performed by using Student's t-test.

C=CCn1c(=O)c2nc(/C=C/c3cc(OC)c(OC)c(OC)c3)[nH]c2n(CC=C)c1=O [Compound 11, (E)-1,3-diallyl-8-(3,4,5-trimethoxystyryl) xanthine]
MLD (dd-strain male mice): > 300 mg/kg
inhibition in vivo at 10 mg/kg [1]: 20%
Number of the Animals Showing Remission [1]: 3
Total Score [1]: 20 points
Amount of Active Movements (average count ± S.E.M) ([2]; Table 3-5, test compound 40 mg/kg orally, normal control 2252 ±210.1, MPTP control 18 ± 8.4): 20 ± 7.1 count

CCCn1c(=O)c2c(nc(/C=C/c3ccccc3)n2C)n(CCC)c1=O [Compound 3, (E) -7-methyl-1,3-dipropyl-8-styrylxanthine]
MLD (dd-strain male mice): > 300 mg/kg
inhibition in vivo at 10 mg/kg [1]: 20%
Number of the Animals Showing Remission [1]: 4
Total Score [1]: 20 points
Amount of Active Movements (average count ± S.E.M) ([2]; Table 3-2, test compound 40 mg/kg orally, normal control 2185 ±156.2, MPTP control 38 ± 24.2): 228 ± 82.6 count

COc1cc(/C=C/c2nc3c(c(=O)n(C)c(=O)n3C)n2C)cc(OC)c1OC [Compound 2, (E)-8-(3,4,5-trimethoxystyryl)caffeine]
MLD (dd-strain male mice): > 300 mg/kg
inhibition in vivo at 10 mg/kg [1]: 56%
Number of the Animals Showing Remission [1]: 5
Total Score [1]: 11 points
Amount of Active Movements (average count ± S.E.M) ([2]; Table 3-1, test compound 10 mg/kg orally, 30 min count starting 30 min after dosing, normal control 1875 ± 77.7, MPTP control 207 ± 85.5): 1134 ±267.0 count
